In publication PMC4789767, “Application of linker technique to trap transiently interacting protein complexes for structural studies” (Journal of Biological Methods, 2016):

Experiments:
C-lobe of CaM = settings: previous findings; ref [34]-[36]; cited from earlier work
From the text: The Gly-linker strategy has been previously used to stabilize various protein complexes for structural studies. We have adopted this procedure to determine the crystal structure of CaM in complex with two of its intrinsically unstructured binding partners, Nm and Ng, and further validated the findings in vitro and in vivo [19]. We identified the MBR of Nm and Ng that interacted with CaM using ITC experiments using various peptide lengths of Nm/Ng. […] We employed known s ...

CaM = assay: ITC: binding of MBR (IQ motif) peptides to CaM; settings: VP-ITC, 25°C, 10 µM CaM in cell, 150 µM IQ peptide in syringe, Buffer A: 20 mM imidazole pH 8.0, 100 mM NaCl, 2 mM EGTA, in words, Fig. 3B vs 3A
Procedure: Different lengths of Nm and Ng IQ motif peptides were commercially synthesized and obtained from GL BiochemLtd (Shanghai, China). Stock solutions of 1 mM of Nm/Ng IQ peptides were prepared by dissolving the appropriate amount of peptide in 20 mM imidazole pH 8.0, 100 mM NaCl and 2 mM EGTA (Buffer A). After mixing, the peptide stock solutions were stored at 4°C to ensure complete peptide solubility. The choice of buffer is based on obtaining maximum solubility of the peptides. NOTE: Synthetically derived peptides should be verified for solubility when dissolved in a buffer of interest. Sometimes preparing high concentrations of peptide stock solution may result in precipitation. Lower concentrations of stock solutions can be prepared to avoid this problem.
• 1. ITC assay: Identification of MBR (minimum binding region) from Nm and Ng. • 1.1. Wildtype (WT) CaM, Nm and Ng are purified, as described previously. • 1.2. Prepare 10 µM of full length Nm/Ng and 150 µM of CaM in Buffer A (Recipes). The Schematic representation of the ITC experimental setup is depicted in Figure 2A. • 1.3. Degas all solutions for 10–20 min using a vacuum pump and centrifuge in order to avoid bubble formation in the sample cell during the experiment. • 1.4. […]

Substance | interaction site on CaM (C-lobe of CaM) | binding with CaM compared with full length Nm (CaM)
Nm: Full-length Neuromodulin (accession no NP_032109), intrinsically disordered neuron-specific substrate protein | interacted with the C-lobe of CaM | –
Minimum Binding Region (MBR) peptide of Nm: Optimized minimum binding region peptide (IQ motif) of Neuromodulin; commercially synthesized | – | mimics full length Nm in terms of binding with CaM
Ng: Full-length Neurogranin (accession no NP_071312), intrinsically disordered neuron-specific substrate protein | interacted with the C-lobe of CaM | –
